In ChEMBL document CHEMBL1681636, “Exploring subtype selectivity and metabolic stability of a novel series of ligands for the benzodiazepine binding site of the GABAA receptor” (Bioorg Med Chem Lett, 2011):
Active and inactive are the calls of the source. The calls are words filed in the database; no cut-off is given here.

Experiments:
[1] = target: T1, Gamma-aminobutyric acid receptor subunit alpha-2 (Homo sapiens, UniProt P47869); assay: Displacement of [3H]flumazenil from GABAA receptor subunit alpha-2 expressed in CHO cells; type: cell-based
T1 sequence (P47869 whole entry): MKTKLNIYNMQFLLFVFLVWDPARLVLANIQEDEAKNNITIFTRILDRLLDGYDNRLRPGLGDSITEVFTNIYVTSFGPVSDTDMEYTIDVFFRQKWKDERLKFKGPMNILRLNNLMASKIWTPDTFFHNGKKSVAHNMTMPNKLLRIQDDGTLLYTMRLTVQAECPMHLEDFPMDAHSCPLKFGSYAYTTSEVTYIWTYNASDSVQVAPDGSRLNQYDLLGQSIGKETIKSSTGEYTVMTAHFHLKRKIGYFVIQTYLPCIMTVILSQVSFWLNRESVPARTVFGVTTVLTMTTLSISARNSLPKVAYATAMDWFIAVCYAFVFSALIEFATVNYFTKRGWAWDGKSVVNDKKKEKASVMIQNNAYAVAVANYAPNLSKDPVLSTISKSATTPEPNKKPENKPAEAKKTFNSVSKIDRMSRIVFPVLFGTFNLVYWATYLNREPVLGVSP

[2] = target: T2, Gamma-aminobutyric acid receptor subunit alpha-2 (Homo sapiens) (UniProt P47869); assay: Agonist activity at recombinant GABAA receptor subunit alpha-2 expressed in CHO cells at 3 uM by sensitive fluorometric read-out assay relative to midazolam; type: functional, cell-based
T2 sequence (whole entry): T1 sequence (P47869 whole entry)

[3] = target: T3, Gamma-aminobutyric acid receptor subunit alpha-1 (Homo sapiens) (UniProt P14867); assay: Agonist activity at recombinant GABAA receptor subunit alpha-1 expressed in CHO cells at 3 uM by sensitive fluorometric read-out assay relative to midazolam; type: functional, cell-based
T3 sequence (whole entry): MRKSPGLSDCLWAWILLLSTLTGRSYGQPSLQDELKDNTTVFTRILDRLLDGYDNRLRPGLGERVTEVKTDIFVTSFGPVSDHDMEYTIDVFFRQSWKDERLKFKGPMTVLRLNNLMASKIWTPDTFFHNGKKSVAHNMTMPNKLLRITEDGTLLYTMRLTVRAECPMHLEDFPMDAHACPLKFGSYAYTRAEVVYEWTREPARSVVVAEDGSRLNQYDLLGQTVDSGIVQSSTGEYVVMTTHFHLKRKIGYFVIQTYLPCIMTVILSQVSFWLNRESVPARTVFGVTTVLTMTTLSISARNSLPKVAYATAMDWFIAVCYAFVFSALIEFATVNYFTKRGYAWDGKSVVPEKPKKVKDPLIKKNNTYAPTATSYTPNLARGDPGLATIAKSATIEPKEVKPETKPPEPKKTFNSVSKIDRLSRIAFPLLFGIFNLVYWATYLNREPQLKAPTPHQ

[4] = Intrinsic clearance in rat liver microsomes at 5 uM after 60 mins; type: ADME, Microsome
[5] = target: T4, Gamma-aminobutyric acid receptor subunit alpha-1 (Homo sapiens, UniProt P14867); assay: Displacement of [3H]flumazenil from GABAA receptor subunit alpha-1 expressed in CHO cells; type: cell-based
T4 sequence (P14867 whole entry): T3 sequence (whole entry)

[6] = target: T2, Gamma-aminobutyric acid receptor subunit alpha-2 (Homo sapiens); assay: Agonist activity at recombinant GABAA receptor subunit alpha-2 expressed in CHO cells at 1 uM by sensitive fluorometric read-out assay relative to midazolam; type: functional, cell-based
[7] = target: T3, Gamma-aminobutyric acid receptor subunit alpha-1 (Homo sapiens); assay: Agonist activity at recombinant GABAA receptor subunit alpha-1 expressed in CHO cells at 1 uM by sensitive fluorometric read-out assay relative to midazolam; type: functional, cell-based

Row | Compound | IC50 [1] [nM] | Efficacy [2] | Efficacy [3] | microsomal CLint at 5 µM [4] [µL/min/mg] | IC50 [5] [nM] | Efficacy [6] [%] | Efficacy [7] [%]
1 | Clc1ccc(-n2nc3c4c(ncc3c2OCc2ccccc2Cl)CCOC4)cc1 | 461 | 32% | 4% |  |  |  | 
2 | Clc1ccc(-n2nc3c4c(ncc3c2OCc2ccccc2Cl)CCCC4)cc1 | 271 | 50% | 25% | 128 | 46 |  | 
3 | Clc1ccc(-n2nc3c4c(ncc3c2Oc2ccccc2Cl)CCCC4)cc1 | > 3000 | inactive | inactive |  | > 3000 |  | 
4 | FC(F)(F)c1ccccc1COc1c2cnc3c(c2nn1-c1ccc(Cl)cc1)CCCC3 |  | 94% | 84% |  |  |  | 
5 | Clc1ccc(-n2nc3c4c(ncc3c2OCc2cccc(Cl)c2)CCCC4)cc1 |  | 50% | 38% |  |  |  | 
6 | Clc1ccc(-n2nc3c(cnc4ccccc43)c2OCc2ccccc2Cl)cc1 | 265 | 22% | 13% |  | 64 |  | 
7 | Clc1ccc(-n2nc3c4c(ncc3c2OCc2ccccc2Cl)CCCCC4)cc1 | 605 | 96% | 114% |  | 242 |  | 
8 | CC1(C)CCc2ncc3c(OCc4ccccc4Cl)n(-c4ccc(Cl)cc4)nc3c2C1 | 213 | 23% | 4% |  | 67 |  | 
9 | Clc1ccc(COc2c3cnc4c(c3nn2-c2ccc(Cl)cc2)CCCC4)cc1 | 177 | 42% | 20% |  | 157 |  | 
10 | Fc1ccccc1-n1nc2c(cnc3ccccc32)c1OCc1ccccc1Cl | 2 | 17% | -8% |  | 1 |  | 
11 | Clc1ccc(-n2nc3c(cnc4ccc(-n5ccnc5)cc43)c2OCC2CC2)cc1 | 2110 | 35% | 80% |  | 134 |  | 
12 | O=C1C2C=Nc3ccccc3C2=NN1c1ccc(Cl)cc1 (centres undefined) [CGS-9896] | 4 |  |  |  | 1 | 47 | 38
13 | Clc1ccccc1COc1c2cnc3ccccc3c2nn1-c1ccc2c(c1)OCO2 | 155 | 19% | -15% |  | 50 |  | 
14 | Clc1ccc(-n2nc3c(cnc4ccccc43)c2OCC2CC2)cc1 | 472 | 36% | 37% |  | 74 |  | 
15 | Fc1ccc(COc2c3cnc4c(c3nn2-c2ccc(Cl)cc2)CCCC4)cc1 | 57 | 41% | 24% |  | 50 |  | 
16 | Fc1ccccc1COc1c2cnc3c(c2nn1-c1ccc(Cl)cc1)CCCC3 | 154 | 83% | 31% |  | 64 |  | 
17 | Clc1ccc(-n2nc3c4c(ncc3c2OCC2CC2)CCCC4)cc1 | 185 | 64% | 18% |  | 94 |  | 
